Experiments:
Type in all cases: cell-based, human
[1] = test system: 8226 cells; assay: Viability of 8226 myeloma cells (MTT); conditions: 100 nM, cells lack FGFR3 expression
Description: (§1) FIG. 2 is a graph showing the viability of human myeloma cell lines in the presence of PRO-001. Viability is reported as the ratio between the optical density (OD) in the presence of FGF±inhibitor and the OD in the absence of FGF.
(§2) Non-transformed rat chondrocyte cell line expressing PGFR3 in an inducible manner (RCJ-FGFR3) has been described previously (Rauchenberger R. et al. J. Biol. Chem. 2003; 278:38194-205). Cells were maintained in α-Minimum Essential Media supplemented with 15% fetal calf serum (FCS), 2 mM L-Glutamine, 100 U/ml penicillin, 100 μg/ml streptomycin, 600 μg/ml G418 (Gibco BRL, Ontario, Canada), 2 μg/ml Tetracyclin (Sigma, Ontario, Canada), and 50 μg/ml HygromycinB (Gibco BRL). […]
(§3) Cell viability was assessed by 3-(4,5-dimethylthiazol)-2,5-diphenyl tetrazolium (MTT) or (2,3-bis(2-methoxy-4-nitro-5-sulphophenyl)-5-[(phenylamino) carbonyl]-2H-tetrazolium hydroxide (XTT) dye absorbance where indicated. Cells were seeded in 96-well plates at a density of 20,000 (FDCP-1 cells), 5,000 (B9 cells) or 25,000 cells (MM cell lines) per well in culture medium. Cells were incubated in the absence or presence of one of the following cytokines: 10 ng/ml FGF9 and 5 μg/ml heparin, 1% murine IL-6, 50 ng/ml IGF-1 or 50 ng/ml human IL-6 where indicated and increasing concentrations of PRO-001, control antibody (purified human Fab) or 100 nM PD173074. […]

[2] = test system: H929 cells; assay: Viability of H929 myeloma cells (MTT); conditions: 100 nM
Description: as §1, §2, §3

[3] = test system: UTMC2 cells; assay: Viability of stimulated UTMC2 myeloma cells (MTT); conditions: 100 nM; MTT
Experimental: as §1
FIG. 4 is a graph showing viability of UTMC2 cells treated with FGF, IL6 or IGF-1. The dark bars represent stimulated cells treated with a control antibody; the dotted bar represents stimulated cells treated with 5 μg/ml PRO-001; the square-filled bar represents stimulated cells treated with 100 nM PD173074.
Non-transformed rat chondrocyte cell line expressing PGFR3 in an inducible manner (RCJ-FGFR3) has been described previously (Rauchenberger R. et al. J. Biol. Chem. 2003; 278:38194-205). […]
as §3

CCN(CC)CCCCNc1ncc2cc(-c3cc(OC)cc(OC)c3)c(NC(=O)NC(C)(C)C)nc2n1 [PD173074, reference compound]
Cell growth of 8226 cells in the presence of FGF [1]: resistant | Cell growth of H929 cells in the presence of FGF [2]: resistant | Inhibition of FGF-stimulated growth of UTMC2 [3]: Inhibition of FGF-stimulated growth of UTMC2 by PRO-001 was comparable to that induced by PD173074

Source: patent US20090175866A1, “TREATMENT OF B-CELL MALIGNANCIES” (priority 2004, published 2009)
